Paper PMC6982123 (ACS chemical neuroscience, 2019)
“Also recorded” adds a separate entry of the source. Where two headings read alike, the source gives them in different places. Square brackets hold non-standard residues; d marks the D form. Peptide text beside a SMILES is read from it. * marks the point of attachment. ξ: configuration not given here. Aoe(9ξ) = N[C@@H](CCCCCC(=O)C1CO1)C(=O)O; Asu = N[C@@H](CCCCCC(=O)O)C(=O)O; dPip = O=C(O)[C@H]1CCCCN1; NHOH = ON*

What was measured:
[1] = target: HDAC1 (Homo sapiens, UniProt Q13547); experiment: biochemical; assay type: biochemical
HDAC1, sequence (Q13547 9-376 limits assumed): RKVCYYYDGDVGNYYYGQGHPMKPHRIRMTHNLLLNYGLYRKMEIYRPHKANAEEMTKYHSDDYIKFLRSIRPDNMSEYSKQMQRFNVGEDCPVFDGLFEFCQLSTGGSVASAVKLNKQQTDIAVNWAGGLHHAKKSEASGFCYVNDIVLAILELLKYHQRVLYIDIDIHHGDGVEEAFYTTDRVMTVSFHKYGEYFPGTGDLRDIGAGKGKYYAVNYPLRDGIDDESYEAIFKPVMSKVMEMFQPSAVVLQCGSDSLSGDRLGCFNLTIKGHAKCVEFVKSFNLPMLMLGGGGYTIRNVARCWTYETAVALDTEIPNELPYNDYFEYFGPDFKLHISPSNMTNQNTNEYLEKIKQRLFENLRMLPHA

[2] = system: PGRN; experiment: Intracellular PGRN ELISA in iPSC-derived NPCs; assay type: cell-based, human; conditions: for Effect on PGRN (1 μM, NPCs) / PGRN induction (in words): 18 h treatment; for Effect on PGRN (1 μM, NPCs): intracellular PGRN; for PGRN induction (in words): Figure 2; for EC50: Homo sapiens, read-out: EC50 of PGRN induction (dose-response curves)
[3] = system: H3K9ac; experiment: Histone H3 acetylation Western blot in NPCs; assay type: cell-based, human
[4] = system: human iPSC-derived NPCs and Ngn2 neurons; experiment: Cellular viability during PGRN experiments; assay type: cell-based; conditions: 10 μM, 18 h treatment (Figure 2)
[5] = system: HDACs 1–3; experiment: HDAC inhibition kinetics, summary statement over HDACs 1-3; assay type: biochemical; conditions: summary over HDACs 1–3 (Tables 1 and S1)
[6] = target: HDAC2 (Homo sapiens, UniProt Q92769); assay type: biochemical
HDAC2, sequence (Q92769 9-376 limits assumed): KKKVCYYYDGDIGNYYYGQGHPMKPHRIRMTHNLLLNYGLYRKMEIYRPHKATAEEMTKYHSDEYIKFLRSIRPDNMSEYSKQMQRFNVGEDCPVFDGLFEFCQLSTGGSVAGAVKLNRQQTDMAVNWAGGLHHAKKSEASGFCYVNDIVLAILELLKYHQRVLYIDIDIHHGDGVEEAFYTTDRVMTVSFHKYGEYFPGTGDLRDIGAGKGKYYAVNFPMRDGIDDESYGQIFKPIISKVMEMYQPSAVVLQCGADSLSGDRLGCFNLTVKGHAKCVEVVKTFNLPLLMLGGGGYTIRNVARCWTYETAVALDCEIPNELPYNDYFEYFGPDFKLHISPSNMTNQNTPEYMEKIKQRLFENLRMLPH

[7] = target: HDAC3 in combination with the DAD domain of NCoR2 (Homo sapiens, UniProt O15379); conditions: read-out: Ki HDAC3; cited from earlier work
HDAC3 in combination with the DAD domain of NCoR2, sequence (O15379 whole entry, the tested form may be a part): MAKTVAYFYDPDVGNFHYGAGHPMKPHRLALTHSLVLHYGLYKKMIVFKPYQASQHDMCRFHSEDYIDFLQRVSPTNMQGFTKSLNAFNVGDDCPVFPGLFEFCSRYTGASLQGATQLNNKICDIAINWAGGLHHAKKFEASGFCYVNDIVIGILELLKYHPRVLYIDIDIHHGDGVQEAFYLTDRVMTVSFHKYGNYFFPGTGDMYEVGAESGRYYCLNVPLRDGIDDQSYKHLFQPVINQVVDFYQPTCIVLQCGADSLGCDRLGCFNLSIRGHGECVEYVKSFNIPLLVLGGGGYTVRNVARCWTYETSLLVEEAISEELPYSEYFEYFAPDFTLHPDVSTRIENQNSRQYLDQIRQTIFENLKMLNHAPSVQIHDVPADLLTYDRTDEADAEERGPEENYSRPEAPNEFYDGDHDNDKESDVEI
HDAC3 in combination with the DAD domain of NCoR2, sequence (Q9Y618 395-489 partner limits assumed): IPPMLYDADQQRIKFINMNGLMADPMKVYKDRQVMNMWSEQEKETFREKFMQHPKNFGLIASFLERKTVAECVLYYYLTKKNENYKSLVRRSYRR

[8] = system: PGRN; conditions: cited from earlier work
[9] = system: H3K9ac; conditions: treatment at 10 μM; cited from earlier work
[10] = system: HDAC6; conditions: previously reported; cited from earlier work
[11] = kinetic model from progression curves

Row | Compound | Mechanism of binding HDAC1 [1, 11] | Effect on PGRN (1 μM, NPCs) ([2]; NPCs) | PGRN induction (in words) ([2]; NPCs) | Effect on H3K9ac (1 μM, NPCs) ([3]; NPCs, 18 h treatment) | dissociative half-life (dis. t½) [5] | EC50 ([2]; 18 h) [nM] | Mechanism of binding HDAC2 [6, 11] | also measured
1 | C/C=C1\NC(=O)[C@H]2CSSCC/C=C/[C@H](CC(=O)N[C@H](C(C)C)C(=O)N2)OC(=O)[C@H](C(C)C)NC1=O [Compound 10, romidepsin] | slow, tight-binding (mechanism B) | ~4.1 fold incr. | substantial increase in PGRN | ~2.3 fold incr. | over 20 min | – | – | Ki [1]: ~0.02 nM; Cellular viability [4]: impaired cellular viability
2 | CC(=O)Nc1ccc(C(=O)Nc2ccccc2N)cc1 [Compound 3, tacedinaline] | mechanism B type of slow-binding inhibition | – | not able to affect PGRN production | – | – | > 20000 | – | Effect on PGRN (NPCs) ([2]; treatment at 10 μM, NPCs, 18 h): Decrease^‡; Intensity of histone marks (H3 acetylation at K9 and K27) ([3]; Western blot, 18 h treatment, Figure 3 and S7): levels comparable to panobinostat; Effect on H3K9ac (NPCs) ([3]; treatment at 10 μM, NPCs, 18 h): ~18 fold incr^‡; Mechanism of binding HDAC2 [6]: mechanism B type of slow-binding inhibition
3 | O=C(CCCCC[C@@H]1NC(=O)[C@H]2CCCCN2C(=O)[C@H](Cc2ccccc2)NC(=O)[C@H](Cc2ccccc2)NC1=O)C1CO1 (stereo partly shown) [Compound 6, trapoxin A] (cyclo(FF[dPip][Aoe(9ξ)])) | mechanism A kinetics | ~2.4 fold incr. | substantial increase in PGRN | ~5.0 fold incr. | – | 22 ± 1 | mechanism A kinetics | Ki [1]: ~0.003 nM
4 | trichostatin A [Compound S1] | slow, tight-binding inhibition profiles (mechanism B) | – | – | – | over 20 min | – | slow, tight-binding inhibition profiles (mechanism B) | –
5 | O=C(CCCCCCC(=O)C(F)(F)F)Nc1ccccc1 [Compound 2, SATK] | – | No change | not able to affect PGRN production | No change | – | – | – | –
6 | O=C(CCCCC[C@@H]1NC(=O)[C@H]2CCCN2C(=O)[C@H](Cc2ccccc2)NC(=O)[C@H](Cc2ccccc2)NC1=O)NO [Compound 7c, TpxB^Asuha] (cyclo([Asu](NHOH)FF[dP])) | – | ~2.2 fold incr. | substantial increase in PGRN | ~6.3 fold incr. | over 20 min | – | – | Ki [7]: ~0.02 nM
7 | CCC(=O)CCCCC[C@@H]1NC(=O)[C@H]2CCCCN2C(=O)[C@H]([C@@H](C)CC)NC(=O)[C@H](Cc2cn(OC)c3ccccc23)NC1=O [Compound 8a, apicidin] | – | ~1.7 fold incr. | – | ~3.3 fold incr. | – | 790 ± 20 | fast-on/fast-off binding kinetics | Mechanism of binding HDAC1 [1]: fast-on/fast-off binding kinetics
8 | Cc1[nH]c2ccccc2c1CCNCc1ccc(/C=C/C(=O)NO)cc1 [Compound 5, panobinostat] | – | ~2.3 fold incr. | – | ~36 fold incr. | over 20 min | 200 ± 10 | slow, tight-binding inhibition profiles (mechanism B); also recorded: effectively irreversible behavior | –
9 | CC(=O)Nc1ccc(C(=O)Nc2cc(-c3cccs3)ccc2N)cc1 [Compound 4, Cpd-60] | – | – | – | – | – | – | – | PGRN induction (in words) ([8]; human neuronal cell culture): not able to affect PGRN production
10 | O=C(CCCCCCC(=O)Nc1ccccc1)NO [Compound 1, SAHA] | – | – | – | – | – | – | – | Effect on H3K9ac (NPCs) [9]: >20 fold incr.‡, [10]; Effect on PGRN (NPCs) ([8]; treatment at 10 μM): >2 fold incr.‡, [10]
11 | C[C@@H]1NC(=O)[C@H]2CCCN2C(=O)[C@H](CCCCCC(=O)[C@@H]2CO2)NC(=O)[C@@H](C)NC1=O [Compound S2, HC-toxin] | – | – | – | – | – | – | – | Mechanism of binding HDAC6 [10]: fast-on/fast-off kinetics
